Measurements taken from article PMC12921516 (ACS Bio & Med Chem Au, 2025).
Entries after “also recorded” stand apart in the source; their conditions may differ.

Key:
[1] = system: HepG2 cells; assay: Cell viability of HepG2 with crystal violet; type: cell-based, human; conditions: 1, 10, and 30 µM for 24, 48 and 72 h
Description: A 96-well plate was seeded with 3,000 HepG2 cells per well and incubated for 72 h. Subsequently, the cells were treated with test compounds at various concentrations for 24, 48, and 72 h. After incubation, the medium was removed, and 100 μL of 1% glutaraldehyde was added for 15 min. The glutaraldehyde was then removed, and 50 μL of 0.5% crystal violet (dissolved in 25% methanol) was added for 30 min. The crystal violet staining solution was subsequently removed, and the plate was thoroughly rinsed with tap water. The precipitate was dissolved in a 10% acetic acid solution, mixed for 15 min, and the absorbance was measured at 590 nm using a plate reader (xMark Microplate Spectrophotometer, Bio-Rad).
Figure S48. Cell viability assessment by crystal violet staining. HepG2 cell viability was evaluated after treatment with the respective compounds at concentrations of 1 , 10, and 30 µM for 24 , 48 and 72 hours. Bar graphs represent mean ± SEM. No significant differences were detected using ANOVA. […]

[2] = system: normoglycemic CD1 mice; assay: Oral glucose tolerance test (OGTT); type: in vivo; conditions: single intragastric dose 50 mg/kg, glucose 2 g/kg
Description: The studies were carried out on compounds 4b, 4g, and 5g using both normoglycemic CD1 mice and a mouse model of noninsulin-dependent diabetes mellitus (NIDDM). An oral glucose tolerance test (OGTT) was conducted on the normoglycemic mice to evaluate the hypoglycemic activity of the compounds, while an insulin tolerance test (ITT) was performed on hyperglycemic CD1 mice to assess the compounds’ capacity to enhance insulin sensitivity in streptozotocin-induced diabetic mice. Pioglitazone and GA were included as positive controls.
Healthy six-week-old male CD-1 mice, weighing between 30 and 40 g, were maintained at a temperature of 25 ± 2 °C, under a 12-h light/dark cycle and 45–65% humidity throughout the experimental period. The mice were provided with a rodent pelleted diet (Harlan Laboratories, Indianapolis, USA) and had access to water ad libitum. Sixteen hours before the experiment, all mice were fasted but still had free access to water. All animal procedures were conducted in accordance with the Mexican Federal Regulations for Animal Experimentation and Care (SAGARPA, NOM-062-ZOO-1999, Mexico) and received approval from the Institutional Animal Care and Use Committee, following guidelines outlined in the US National Institutes of Health publication (No. 85–23, revised 1985).
Animals were categorized into five groups, each consisting of four mice (n = 4). The experimental groups received an oral suspension of compounds 4b, 4g, and 5g, prepared in a 10% Tween 20/water solution, at a dosage of 50 mg/kg body weight. A control group was treated with only the 10% Tween 20 solution. The final group was administered pioglitazone at a dose of 45 mg/kg, which is recognized as a reference drug for insulin sensitization. To evaluate glucose levels, blood samples were collected from the tails of the mice at 0, 30, 60, 90, and 120 min after the administration of the vehicle, test compound, or drug. Blood glucose concentration was measured using a commercial glucometer (Accu-Chek, Performa; Roche) and the enzymatic glucose dehydrogenase method. The percentage variation in glycemia was calculated by comparing the selected postadministration glycemia (G x ) with the initial value (G0) using the following formula: %variationofglycemia=[(Gx−G0)/G0]×100 where G0 represents the initial glycemia values and Gx indicates the glycemia values at +30, + 60, + 90, and +120 min, respectively.
To determine the hypoglycemic effect of the compounds on nondiabetic animals, the compounds 4b, 4g, and 5g were administered intragastrically. Pioglitazone was used as a positive control. After 30 min, five mice/group (CD-1) were subjected to OGTT. The test was performed using glucose (2 g/kg) as substrate.

[3] = system: STZ-induced diabetic CD-1 mice; assay: Insulin tolerance test (ITT); type: in vivo; conditions: for glycemia variation in ITT: single intragastric dose 50 mg/kg, insulin 0.75 IU after 30 min
Description: The studies were carried out on compounds 4b, 4g, and 5g using both normoglycemic CD1 mice and a mouse model of noninsulin-dependent diabetes mellitus (NIDDM). An oral glucose tolerance test (OGTT) was conducted on the normoglycemic mice to evaluate the hypoglycemic activity of the compounds, while an insulin tolerance test (ITT) was performed on hyperglycemic CD1 mice to assess the compounds' capacity to enhance insulin sensitivity in streptozotocin-induced diabetic mice. Pioglitazone and GA were included as positive controls. […] Healthy six-week-old male CD-1 mice, weighing between 30 and 40 g, were maintained at a temperature of 25 ± 2 °C, under a 12-h light/dark cycle and 45-65% humidity throughout the experimental period. The mice were provided with a rodent pelleted diet (Harlan Laboratories, Indianapolis, USA) and had access to water ad libitum. Sixteen hours before the experiment, all mice were fasted but still had free access to water. All animal procedures were conducted in accordance with the Mexican Federal Regulations for Animal Experimentation and Care (SAGARPA, NOM-062-ZOO-1999, Mexico) and received approval from the Institutional Animal Care and Use Committee, following guidelines outlined in the US National Institutes of Health publication (No. 85-23, revised 1985). Streptozotocin (STZ) was dissolved in citrate buffer (pH 4.5), while nicotinamide was dissolved in a normal physiological saline solution. The noninsulin-dependent diabetes (NIDD) mouse model was induced in overnight-fasted mice through a single intraperitoneal injection of STZ (100 mg/kg). Nicotinamide was administered 15 min prior, at a dose of 20 mg/kg via intraperitoneal injection. […] Roche). […] Animals were categorized into five groups, each consisting of four mice (n = 4). The experimental groups received an oral suspension of compounds 4b, 4g, and 5g, prepared in a 10% Tween 20/water solution, at a dosage of 50 mg/kg body weight. A control group was treated with only the 10% Tween 20 solution. The final group was administered pioglitazone at a dose of 45 mg/kg, which is recognized as a reference drug for insulin sensitization. To evaluate glucose levels, blood samples were collected from the tails of the mice at 0, 30, 60, 90, and 120 min after the administration of the vehicle, test compound, or drug. Blood glucose concentration was measured using a commercial glucometer (Accu-Chek, Performa; Roche) and the enzymatic glucose dehydrogenase method. The percentage variation in glycemia was calculated by comparing the selected postadministration glycemia (G x ) with the initial value (G0) using the following formula: %[…]=[(Gx-G0)/G0]×100 where G0 represents the initial glycemia values and Gx indicates the glycemia values at +30, + 60, + 90, and +120 min, respectively. To evaluate the ability of GA derivatives to enhance insulin sensitivity in STZ-induced diabetic CD-1 mice, compounds 4b, 4g, and 5g were tested. Glycyrrhetinic acid (GA) and Pioglitazone served as positive controls. The GA derivatives and the positive controls were administered to the diabetic animals, followed by the administration of human rapid-acting insulin (0.75 IU) after 30 min. Subsequently, glucose levels were measured every 15 min.

Row | Structure (SMILES) | HepG2 cell viability [1] | hypoglycemic effect in OGTT [2] | ITT activity compared to GA ([3]; 50 mg/kg) | glycemia variation in ITT ([3]; 50 mg/kg) | glycemia variation in ITT [3] | ITT activity compared to pioglitazone ([3]; 50 mg/kg vs pioglitazone 45 mg/kg) | glycemic variation in ITT compared with normoglycemic mice ([3]; 50 mg/kg, after the 45th minute)
1 | CC1(C)c2[nH]c3ccc(OC(F)F)cc3c2C[C@]2(C)[C@H]3C(=O)C=C4[C@@H]5C[C@@](C)(C(=O)O)CC[C@]5(C)CC[C@@]4(C)[C@]3(C)CC[C@@H]12 [compound 4b, (20β)-5′-(Difluoromethoxy)-11-oxo-1′H-oleana-2,12-dieno[3,2-b]indol-29-oic Acid] | No significant differences; also recorded: did not compromise HepG2 cell viability | did not cause hypoglycemia | greater potency than GA | significantly reduced glucose levels; also recorded: reduce glycemia variation starting from the 15th minute |  |  | 
2 | CC1(C)c2[nH]c3ccc(S(N)(=O)=O)cc3c2C[C@]2(C)[C@H]3C(=O)C=C4[C@@H]5C[C@@](C)(C(=O)O)CC[C@]5(C)CC[C@@]4(C)[C@]3(C)CC[C@@H]12 [compound 4g, (20β)-5′-Sulfamoyl-11-oxo-1′H-oleana-2,12-dieno[3,2-b]indol-29-oic Acid] | No significant differences | did not cause hypoglycemia |  |  | reduce glycemia variation starting from the 15th minute |  | 
3 | CC1(C)c2c(cnn2-c2ccc(S(N)(=O)=O)cc2)C[C@]2(C)[C@H]3C(=O)C=C4[C@@H]5C[C@@](C)(C(=O)O)CC[C@]5(C)CC[C@@]4(C)[C@]3(C)CC[C@@H]12 [compound 5g, (20β)-11-Oxo-2′-(4-sulfamoylphenyl)-2′H-oleana-2,12-dieno[3,2-c]pyrazol-29-oic Acid] | No significant differences; also recorded: did not compromise HepG2 cell viability | did not cause hypoglycemia | greater potency than GA | significantly reduced glucose levels; also recorded: reduce glycemia variation starting from the 15th minute |  | superior activity compared to pioglitazone | no significant differences in glycemic variation
